Experimental data from patent US20220296637A1, “SODIUM THIOSULFATE GEL FOR PREVENTING OR REDUCING HEARING LOSS” (STICHTING HET NEDERLANDS KANKER INSTITUUT-ANTONI VAN …, priority 2019, published 2022).

Columns and labels:
[1] = test system: cisplatin-induced hearing loss (CIHL); conditions: cited from earlier work; for patients in whom CIHL was seen: 61 patients treated with STS (intravenous), 64 with cisplatin alone, p=0.00022; for overall survival: children with disseminated disease, additional intravenous STS vs cisplatin alone, p=0.009
[2] = reported incidences vary widely amongst studies; cited from earlier work
[3] = test system: cisplatin-induced hearing loss (CIHL); assay: Phase 1 trial of transtympanic STS gel: audiometry (pure tone averages) for efficacy against cisplatin-induced hearing loss; format: in vivo, human; conditions: for Δ PTA 0.5-1-2 kHz (posttreatment − baseline) / Δ PTA 1-2-4 kHz (posttreatment − baseline) / Δ PTA 8-10-12.5 kHz (posttreatment − baseline): STS-treated ears; for difference in ΔPTA3 in favour of the untreated ear: last non-responder
Method: Arm A was a single-blind, placebo controlled, proof-of-concept study. A different application method was investigated in arm B, which was a non-blinded, non-placebo controlled, proof of concept arm. The ear to be treated with the transtympanic STS gel was assigned by randomisation in both arms. The study was performed at the Netherlands Cancer Institute in Amsterdam, the Netherlands. The protocol was approved by the institutional medical research ethics committee. The study is registered with the European Clinical Trials Database (EudraCT) (EudraCT: 2012-004653-80). […] Exclusion criteria were: known symptomatic brain or leptomeningeal metastases and relevant otological history (e.g. conductive hearing loss, vertigo). All patients gave written informed consent prior to start of study procedures. The ear to be treated with the transtympanic STS gel was assigned by randomisation in both arm A and arm B. Arm A concerned a single-blind study protocol in which the contralateral ear was treated with a placebo gel. Arm B was non-blinded and the contralateral ear was left untreated. The enrolment of patients was done by a treating physician. Randomisation was done via a randomisation program at the institutional trial centre. […] In arm B only the STS gel was prepared. Syringes with study medication were warmed up to body temperature (37° C.) for 30 minutes in an incubator ([…], Switzerland) to prevent hypo- or hypercaloric symptoms during or after injections. The syringe was connected to the (Braun, […]) needle via a 10 cm infusion line (BD Becton Dickenson connecta). […] To approach the eardrum in a perpendicular orientation. In arm A, the gels were administered through a […] grommet, which was placed for venting air to prevent barotrauma and/or pain while injecting. During this procedure we noticed there was backflow of the gel via the infusion needle backward into the external ear canal. Therefore, a different protocol for the transtympanic injection was chosen in arm B for the next 6 patients: the grommet was still placed in the anterior eardrum for ventilation of the middle ear, however, the STS gel was injected via the needle directly through the posterior part of the eardrum and indeed backflow into the external ear was not seen anymore. Topical anesthesia was applied using a few small (3×3 mm) gauzes with xylocaine 10% (lidocaine 100 mg/ml, AstraZeneca, United Kingdom) applied on the eardrum before placement of the grommet and the injections. During the injections, the patient was lying in a hospital bed with the upper body positioned 30 degrees upwards. After administration of the gel the patients head was turned 45 degrees contralateral. […] The specific positioning of the patient was in our view needed to for improved and/or prolonged exposure of the STS gel to the round window of the middle ear. […] If concomitant chemotherapy or radiotherapy was to be administered, this was done as per local protocol. […] Standard audiometry including air conduction (AC) and bone conduction (BC) thresholds was performed in a sound proof booth using the Decos Audiology Workstation. […] Six evaluable patients per study arm were considered sufficient to reach proof of concept based on the intra-patient comparison and the expected audiometric difference between the STS-treated and untreated/placebo treated ears. […] To study whether there was a significant difference in CIHL over time ([…]) between the STS ears and the untreated ears, the […] with paired samples was used.

[4] = test system: cisplatin-induced hearing loss (CIHL); conditions: cited from earlier work
[5] = test system: cisplatin-induced hearing loss; conditions: transtympanic STS gel (0.5 M, 0.1 ml, 24 hours prior to cisplatin); 13 patients; 3 to 10 kHz; not significant; cited from earlier work
[6] = guinea pigs; cited from earlier work
[7] = in vivo; cited from earlier work

N.N.[Cl][Pt][Cl] [Cisplatin, cis-diaminedichloroplatinum(II)]
patients in whom CIHL was seen [1]: 56% | overall survival [1]: 84% | occurrence of cisplatin-induced hearing loss in cisplatin-treated patients [2]: 75-80%

O=S([O-])([O-])=S.[Na+].[Na+] [STS, sodium thiosulfate]
Δ PTA 0.5-1-2 kHz (posttreatment − baseline) ([3]; 4 patients with ototoxicity who responded to STS-gel): −0.4 dB HL | Δ PTA 1-2-4 kHz (posttreatment − baseline) ([3]; 4 responders): −0.4 dB HL | Δ PTA 8-10-12.5 kHz (posttreatment − baseline) ([3]; 4 responders): 6.8 dB SPL | occurrence of SNHL (ΔPTA3 ≥10 dB), STS-treated versus untreated ears ([3]; 12 STS-treated ears vs 12 untreated ears, McNemar p=0.125): no statistically significant difference | Δ PTA 1-2-4 kHz (posttreatment − baseline) ([3]; all 12 patients): 2.5 dB HL | Δ PTA 8-10-12.5 kHz (posttreatment − baseline) ([3]; all 12 patients): 8.8 dB SPL | ΔPTA3 (8-10-12.5 kHz), overall ([3]; all 12 patients, STS-treated ears (untreated ears 12.7 dB)): 8.8 dB | Δ PTA 0.5-1-2 kHz (posttreatment − baseline) ([3]; all 12 patients, directly after last cisplatin cycle minus baseline): 2.1 dB HL | ΔPTA3 ([3]; four non-responders, STS-treated ears (untreated ears 15.2 dB)): 14.3 dB | mean ΔPTA3 ([3]; four responders, STS-treated ears (untreated ears 25.2 dB)): 6.8 dB | difference in ΔPTA3 between STS-treated ears and untreated ears ([3]; four responders, in favour of STS-treated ear, range 11.7-33.3 dB): 18.4 dB | difference in ΔPTA3 in favour of the untreated ear ([3]; at follow-up audiometry): 2.3 dB SPL | difference in ΔPTA3 in favour of the untreated ear ([3]; directly after treatment): 10.0 dB SPL | difference in ΔPTA3 between ears ([3]; three of the four non-responders): < 10 dB SPL | patients in whom CIHL was seen [1]: 29% | overall survival [1]: 45% | adverse events likely attributed to intravenous STS administration ([4]; children): tumour progression and grade 3 infection, neutropenia, electrolyte disorders and anaemia | relative risk of CIHL ([4]; intravenous STS, 95% confidence interval 0.33-0.81): 52% | reduction of the incidence of CIHL versus cisplatin alone ([4]; intravenous STS, 109 children, p=0.002): 48% | averaged hearing loss less in STS-treated ears than in untreated ears [5]: 1.3 dB | perilymph STS concentrations, transtympanic injections compared with intravenous infusion [6]: higher | oral bio-availability [7]: poor
